From patent US12404261B2, “Compounds and compositions for treating conditions associated with cGAS” (Novartis AG, priority 2020, dated 2025)

What follows are compounds tested against human truncated cGAS enzyme (147-522 human cGAS) (Homo sapiens (Human), UniProt Q8N884) (assay: Quantification of cGAS protein inhibition (cGAMP formation measured by LC-MS/MS)). Conditions: reported for the potential mixture in solution of co-existing tautomers and/or racemates.
Format: biochemical
Outline: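 Human cGAS 147-522 (30 nM) in Tris pH 7.5, NaCl, MgCl2, ZnCl2, Tween 20, started with 5 μM ISD 45 bp dsDNA, 0.5 mM GTP and 0.5 mM ATP. Incubated 1 h at room temperature, then quenched with acetonitrile/TFA. cGAMP quantified by LC-MS/MS against a labelled cGAMP internal standard; IC50 from ratio versus compound concentration.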

human truncated cGAS enzyme (147-522 human cGAS), sequence (Q8N884 147-522): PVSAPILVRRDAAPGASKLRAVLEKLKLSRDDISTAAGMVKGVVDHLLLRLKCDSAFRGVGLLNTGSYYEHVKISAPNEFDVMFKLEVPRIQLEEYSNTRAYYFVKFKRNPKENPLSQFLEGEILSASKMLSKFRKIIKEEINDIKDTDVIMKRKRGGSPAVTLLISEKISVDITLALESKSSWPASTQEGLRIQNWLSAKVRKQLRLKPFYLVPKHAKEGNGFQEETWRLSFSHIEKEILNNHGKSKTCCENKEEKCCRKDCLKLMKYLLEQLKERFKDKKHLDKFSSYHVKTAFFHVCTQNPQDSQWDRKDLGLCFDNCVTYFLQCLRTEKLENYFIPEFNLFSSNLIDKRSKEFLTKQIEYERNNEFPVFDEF

| Compound | IC50 [nM] |
| --- | --- |
| CN[C@@H](COC)c1nnc(-c2c(-n3ccnc3)c3cc(OC)c(Cl)c(F)c3n2C)[nH]1 [Example 125a, (R)-1-(5-(6-chloro-7-fluoro-3-(1H-imidazol-1-yl)-5-methoxy-1-methyl-1H-indol-2-yl)-4H-1,2,4-triazol-3-yl)-2-methoxy-N-methylethan-1-amine] | 180 |
| COC[C@@H](c1nnc(-c2c(-n3ccnc3)c3cc(OC)c(Cl)c(F)c3n2C)[nH]1)N(C)C [Example 124a, (R)-1-(5-(6-chloro-7-fluoro-3-(1H-imidazol-1-yl)-5-methoxy-1-methyl-1H-indol-2-yl)-4H-1,2,4-triazol-3-yl)-2-methoxy-N,N-dimethylethan-1-amine] | 120 |
| COc1cc2c(-n3ccnc3)c(-c3nnc(C(=O)N(C)C)[nH]3)n(C)c2c(F)c1F [Example 104, 5-(6,7-difluoro-3-(1H-imidazol-1-yl)-5-methoxy-1-methyl-1H-indol-2-yl)-N,N-dimethyl-4H-1,2,4-triazole-3-carboxamide] | 318 |
| COCC(c1nnc(-c2c(-n3ccnc3)c3cc(OC)c(Cl)c(F)c3n2C)[nH]1)N(C)C (racemic) [Example 124, 1-(5-(6-chloro-7-fluoro-3-(1H-imidazol-1-yl)-5-methoxy-1-methyl-1H-indol-2-yl)-4H-1,2,4-triazol-3-yl)-2-methoxy-N,N-dimethylethan-1-amine] | 122 |
| CNC(COC)c1nnc(-c2c(-n3ccnc3)c3cc(OC)c(Cl)c(F)c3n2C)[nH]1 (racemic) [Example 125, 1-(5-(6-chloro-7-fluoro-3-(1H-imidazol-1-yl)-5-methoxy-1-methyl-1H-indol-2-yl)-4H-1,2,4-triazol-3-yl)-2-methoxy-N-methylethan-1-amine] | 74 |
| COc1cc2c(-n3ccnc3)c(-c3nnc(C(C)N4CCOCC4)[nH]3)n(C)c2c(F)c1Cl (centres unmarked) [Example 121, 4-(1-(5-(6-chloro-7-fluoro-3-(1H-imidazol-1-yl)-5-methoxy-1-methyl-1H-indol-2-yl)-4H-1,2,4-triazol-3-yl)ethyl)morpholine] | 80 |

Same assay, conditions: reported for the potential mixture of co-existing tautomers and/or racemates

| Compound | IC50 [nM] |
| --- | --- |
| COc1cc2c(-c3cn[nH]c3)c(-c3nnc(C(C)F)[nH]3)[nH]c2c(F)c1Cl (centres unmarked) [Example 71, 6-chloro-7-fluoro-2-(5-(1-fluoroethyl)-4H-1,2,4-triazol-3-yl)-5-methoxy-3-(1H-pyrazol-4-yl)-1H-indole] | 44 |
| COCC(=O)N(C)c1nnc(-c2c(-c3cn[nH]c3)c3cc(OC)c(Cl)c(F)c3n2C)[nH]1 [Example 62, N-(5-(6-chloro-7-fluoro-5-methoxy-1-methyl-3-(1H-pyrazol-4-yl)-1H-indo1-2-yl)-4H-1,2,4-triazol-3-yl)-2-methoxy-N-methylacetamide] | 60 |
| N#Cc1nnc(-c2[nH]c3c(Cl)c(Cl)ccc3c2-c2cn[nH]c2)[nH]1 [Example 35, 5-(6,7-Dichloro-3-(1H-pyrazol-4-yl)-1H-indol-2-yl)-4H-1,2,4-triazole-3-carbonitrile] | 77 |
| COc1cc2c(-c3cn[nH]c3)c(-c3nnc(F)[nH]3)[nH]c2c(F)c1Cl [Example 3, 6-chloro-7-fluoro-2-(5-fluoro-4H-1,2,4-triazol-3-yl)-5-methoxy-3-(1H-pyrazol-4-yl)-1H-indole] | 30 |
| CCOc1cc2c(-c3cn[nH]c3)c(-c3nnc(C(C)=O)[nH]3)n(C)c2c(F)c1Cl [Example 74, 1-(5-(6-chloro-5-ethoxy-7-fluoro-1-methyl-3-(1H-pyrazol-4-yl)-1H-indo1-2-yl)-4H-1,2,4-triazol-3-yl)ethan-1-one] | 210 |
| Oc1cc2c(-c3cn[nH]c3)c(-c3nnc(C(F)(F)F)[nH]3)[nH]c2cc1Cl [Example 33, 6-Chloro-3-(1H-pyrazol-4-yl)-2-(5-(trifluoromethyl)-4H-1,2,4-triazol-3-yl)-1H-indol-5-ol] | 38 |
| COc1cc2c(-c3cn[nH]c3)c(-c3nnc(C(=O)N(C)C)[nH]3)n(C)c2c(F)c1Cl [Example 2, 5-(6-chloro-7-fluoro-5-methoxy-1-methyl-3-(1H-pyrazol-4-yl)-1H-indol-2-yl)-N,N-dimethyl-4H-1,2,4-triazole-3-carboxamide] | 46 |
| COCc1nnc(-c2c(-n3ccnc3)c3cc(OC)c(Cl)c(C#N)c3n2C)[nH]1 [Example 54, 6-chloro-3-(1H-imidazol-1-yl)-5-methoxy-2-(5-(methoxymethyl)-4H-1,2,4-triazol-3-yl)-1-methyl-1H-indole-7-carbonitrile] | 76 |
| COCC(F)c1nnc(-c2c(-c3cn[nH]c3)c3cc(OC)c(Cl)c(F)c3n2C)[nH]1 (centres unmarked) [Example 70, 6-chloro-7-fluoro-2-(5-(1-fluoro-2-methoxyethyl)-4H-1,2,4-triazol-3-yl)-5-methoxy-1-methyl-3-(1H-pyrazol-4-yl)-1H-indole] | 39 |
| COc1cc2c(-c3cn[nH]c3)c(-c3nnc(C(F)(F)F)[nH]3)n(C)c2cc1Cl [Example 20, 6-chloro-5-methoxy-1-methyl-3-(1H-pyrazol-4-yl)-2-(5-(trifluoromethyl)-4H-1,2,4-triazol-3-yl)-1H-indole] | 116 |
| NC(=O)c1nnc(-c2[nH]c3c(Cl)c(Cl)ccc3c2-c2cn[nH]c2)[nH]1 [Example 22, 5-(6,7-dichloro-3-(1H-pyrazol-4-yl)-1H-indol-2-yl)-4H-1,2,4-triazole-3-carboxamide] | 30 |
| COCC(=O)c1nnc(-c2[nH]c3c(F)c(Cl)c(OC)cc3c2-c2cn[nH]c2)[nH]1 [Example 57, 1-(5-(6-chloro-7-fluoro-5-methoxy-3-(1H-pyrazol-4-yl)-1H-indol-2-yl)-4H-1,2,4-triazol-3-yl)-2-methoxyethan-1-one] | 30 |
| COCCc1nnc(-c2c(-n3ccnc3)c3cc(OC)c(Cl)c(F)c3n2C)[nH]1 [Example 52, 6-chloro-7-fluoro-3-(1H-imidazol-1-yl)-5-methoxy-2-(5-(2-methoxyethyl)-4H-1,2,4-triazol-3-yl)-1-methyl-1H-indole] | 206 |
| COC[C@@H](O)c1nnc(-c2c(-n3ccnc3)c3cc(OC)c(Cl)c(F)c3n2C)[nH]1 [Example 83, (S)-1-(5-(6-chloro-7-fluoro-3-(1H-imidazol-1-yl)-5-methoxy-1-methyl-1H-indol-2-yl)-4H-1,2,4-triazol-3-yl)-2-methoxyethan-1-ol] | 78 |
| COc1cc2c(-c3cn[nH]c3)c(-c3nnc(C(C)C#N)[nH]3)n(C)c2c(F)c1Cl (centres unmarked) [Example 82, 2-(5-(6-Chloro-7-fluoro-5-methoxy-1-methyl-3-(1H-pyrazol-4-yl)-1H-indol-2-yl)-4H-1,2,4-triazol-3-yl)propanenitrile] | 30 |
| COCC(F)(F)c1nnc(-c2c(-n3ccnc3)c3cc(OC)c(Cl)c(F)c3n2C)[nH]1 [Example 89, 6-chloro-2-(5-(1,1-difluoro-2-methoxyethyl)-4H-1,2,4-triazol-3-yl)-7-fluoro-3-(1H-imidazol-1-yl)-5-methoxy-1-methyl-1H-indole] | 40 |
| COCC(=O)c1nnc(-c2[nH]c3c(Cl)c(Cl)ccc3c2-c2cn[nH]c2)[nH]1 [Example 7, 1-(5-(6,7-dichloro-3-(1H-pyrazol-4-yl)-1H-indol-2-yl)-4H-1,2,4-triazol-3-yl)-2-methoxyethan-1-one] | 30 |
| COc1cc2c(-n3ccnc3)c(-c3nnc(C(=O)N(C)C)[nH]3)n(C)c2c(F)c1Cl [Example 39, 5-(6-chloro-7-fluoro-3-(1H-imidazol-1-yl)-5-methoxy-1-methyl-1H-indol-2-yl)-N,N-dimethyl-4H-1,2,4-triazole-3-carboxamide] | 48 |
| COc1cc2c(-c3cn[nH]c3)c(-c3nnc(C(F)(F)F)[nH]3)n(CCO)c2cc1Cl [Example 25, 2-(6-chloro-5-methoxy-3-(1H-pyrazol-4-yl)-2-(5-(trifluoromethyl)-4H-1,2,4-triazol-3-yl)-1H-indol-1-yl)ethan-1-ol] | 1430 |
| COc1cc2c(-c3cn[nH]c3)c(-c3nnc(N4CCOCC4)[nH]3)n(C)c2c(F)c1Cl [Example 59, 4-(5-(6-chloro-7-fluoro-5-methoxy-1-methyl-3-(1H-pyrazol-4-yl)-1H-indol-2-yl)-4H-1,2,4-triazol-3-yl)morpholine] | 78 |
| COc1cc2c(-n3ccnc3)c(-c3nnc(C(=O)N4CCC(O)CC4)[nH]3)n(C)c2c(F)c1Cl [Example 44, (5-(6-chloro-7-fluoro-3-(1H-imidazol-1-yl)-5-methoxy-1-methyl-1H-indol-2-yl)-4H-1,2,4-triazol-3-yl)(4-hydroxypiperidin-1-yl)methanone] | 58 |
| FC(F)(F)c1nnc(-c2[nH]c3cc(Cl)c(Cl)cc3c2-c2cn[nH]c2)[nH]1 [Example 18, 5,6-dichloro-3-(1H-pyrazol-4-yl)-2-(5-(trifluoromethyl)-4H-1,2,4-triazol-3-yl)-1H-indole] | 165 |
| COC(=O)Cc1nnc(-c2[nH]c3c(Cl)c(Cl)ccc3c2-c2cn[nH]c2)[nH]1 [Example 29, methyl 2-(5-(6,7-dichloro-3-(1H-pyrazol-4-yl)-1H-indol-2-yl)-4H-1,2,4-triazol-3-yl)acetate] | 218 |
| COCC(F)(F)c1nnc(-c2c(-c3cn[nH]c3)c3cc(OC)c(Cl)c(F)c3n2C)[nH]1 [Example 66, 6-chloro-2-(5-(1,1-difluoro-2-methoxyethyl)-4H-1,2,4-triazol-3-yl)-7-fluoro-5-methoxy-1-methyl-3-(1H-pyrazol-4-yl)-1H-indole] | 30 |
| COCC(F)(F)c1nnc(-c2c(-c3cn[nH]c3)c3cc(OC)c(Cl)c(C#N)c3n2C)[nH]1 [Example 73, 6-chloro-2-(5-(1,1-difluoro-2-methoxyethyl)-4H-1,2,4-triazol-3-yl)-5-methoxy-1-methyl-3-(1H-pyrazol-4-yl)-1H-indole-7-carbonitrile] | 30 |
| COc1cc2c(-n3ccnc3)c(-c3nnc(N4CC[C@H](O)C4)[nH]3)n(C)c2c(F)c1Cl [Example 92, (S)-1-(5-(6-chloro-7-fluoro-3-(1H-imidazol-1-yl)-5-methoxy-1-methyl-1H-indol-2-yl)-4H-1,2,4-triazol-3-yl)pyrrolidin-3-ol] | 81 |
